Legend:
[1] = system: B. japonicum (strain USDA 110); assay: Growth of B. japonicum in defined liquid media with glyphosate up to 10 mM (Example 6); format: cell-based; conditions: Bradyrhizobium japonicum, 216 h, read-out: Growth inhibition compared to the control without glyphosate
Experimental: The defined media consists of 25 mM arabinose as the carbon source, 15 mM (NH4)2SO4, 0.7 mM MgSO4, 0.4 mM CaCl2, 20 mM NaCl, 2.5 mM K2HPO4, and 40 mM MOPS (3-[N-morpholino]propane-sulfonic acid), at pH 6.8, plus the appropriate micronutrients. […] These colonies were removed and stored in frozen culture in 50% sterile glycerol.

[2] = system: GR soybean cultivars A4501RR, A5901RR, DK5961RR, H5164RR, TV5866RR; assay: Greenhouse Example 2: sensitivity of five GR soybean cultivars to glyphosate; format: in vivo, soybean (Glycine max); conditions: 40 DAE
Source text: The other plants were not treated and served as controls. […] The experiment was a completely random design with six replications.

[3] = system: GR soybean cultivar Terral TV5866RR; assay: Greenhouse Example 1: biomass, nitrogen content and nodules of TV5866RR after postemergence glyphosate; format: in vivo, soybean (Glycine max); conditions: for Nodules per plant Run 1 / Individual nodule mass Run 2 / Nodules per plant Run 2 / Individual nodule mass Run 1: Harvest 2 (40 DAE)
Experimental: Seeds were planted in 15-cm pots with an approximate soil volume of 1.9 L. The potting medium was a nitrogen-free peat/vermiculite/perlite mixture (LB2, Sun Gro Horticulture Inc., 1830 Knob Hill, Garland, Tex. 75403). Soil was saturated with deionized (DI) water and then 500 mL of full-strength, nitrogen-free nutrient solution (de Silva et al., 1996) was added prior to planting. Pots were inoculated with approximately 1×10^7 cells of B. japonicum (USDA 110) at sowing. After emergence, plants were thinned to one per pot and reinoculated with B. japonicum. Plants were well watered by adding deionized (DI) water daily, and each pot received 250 mL of nitrogen-free nutrients weekly after emergence. Day and night temperatures were approximately 30 and 24 C, respectively, and natural illumination was supplemented with 1000 W metal-halide lamps for a day length of 16 h.
Each application was as a postemergence over-the-top spray to soybean plants using a moving-nozzle spray chamber. At each harvest, plants were separated into shoots, roots, and nodules. Nodules were photocopied, and total number of nodules per plant was determined from the photocopies. Plant sections were oven dried at 65 C for 48 h, weighed, and ground to pass a 1-mm sieve. Total nitrogen was determined for shoots and root plus nodule dry matter with a Leco FP-228 Determinator (Leco Corporation, St Joseph, Mich.) by the Agriculture Services Laboratory, University of Arkansas. The experiment consisted of six replications and was repeated. Seed for Run 1 and Run 2 of the experiment were planted on 25 February and 14 April, respectively. […] Treatment means were compared using Fisher's Protected least significant difference (LSD, P≦0.05).

[4] = system: GR soybean cultivars A5901RR and DK5961RR; assay: Field experiments at Keiser and Fayetteville, Arkansas: biomass and seed yield; format: in vivo, soybean (Glycine max)
Experimental: Field experiments were conducted at Fayetteville and Keiser, Ark., to evaluate the response of GR soybean cultivars to foliar applications of glyphosate under field conditions susceptible to drought stress. […] Delannay et al. (1995) reported three experiments out of 58 in which yields were less than 1500 kg ha^−1, but there was no indication as to the cause of these low yields. The Fayetteville experiment was conducted on a Pembroke silt loam (Ultic Paleudalfs) on 15-cm-high beds spaced 1 m apart. Water was applied as needed until mid-reproductive development (R5) with sprinkle irrigation. At Keiser the soil was a Sharkey silty-clay (Vertic Haplaquepts), and soybean was planted on a flat seedbed with rows 0.96 m apart. Irrigation was applied with an overhead, lateral-move system.
Experiments at both locations were a factorial of two cultivars and five herbicide treatments in a randomized complete block design with four replications. Plots were four rows wide by 9 m long. […] The seeding rate was 370,000 ha^−1 at both locations.
Herbicides were applied as a broadcast treatment, sprayed over-the-top of the canopy with a CO2-powered backpack sprayer in a volume of 93 L ha^−1. […] All herbicide treatments contained appropriate surfactants. Plants were at V1, V4, and V9 development stages at 7, 21, and 35 DAE application timings, respectively, at both locations. R2 applications were made at 45 and 48 DAE at Fayetteville and Keiser, respectively. Plots were maintained weed free by hand weeding as needed. Four replications of the non-nodulating isoline of the cultivar ‘Lee’ were included at each location as an indicator of plant-available soil nitrogen.
Samples were prepared and analyzed for total nitrogen as previously described. Seed yield was determined by harvesting 4.5 m from each of the center two rows. Average seed mass was determined from a random sample of 100 seeds. Biomass data were evaluated by comparing the means±standard errors between herbicide treatments within a cultivar and sample date. […]

[5] = Harvest 1 (19 DAE), averaged across runs
[6] = TV5866RR, Harvest 1 (19 DAE), early treatment
[7] = TV5866RR, Harvest 1 (19 DAE), early treatment: foliar 1.68 kg ha^−1 at 5 and 12 DAE

O=C(O)CNCP(=O)(O)O [glyphosate, N-(phosphonomethyl)glycine]
inhibition at 10000 µM [1]: ~90%
Shoot mass effect [2]: decreased
Biomass Nodule ([2]; A4501RR, E + L treatment): 0.47 g plant^−1
Biomass Root ([2]; A4501RR, E + L treatment): 1.22 g plant^−1
Biomass Shoot ([2]; A4501RR, E + L treatment): 4.55 g plant^−1
Nitrogen Root ([2]; A4501RR, E + L treatment): 45 mg plant^−1
Nitrogen Shoot ([2]; A4501RR, E + L treatment): 185 mg plant^−1
Nodule biomass effect ([2]; A5901RR): increased
Biomass Nodule ([2]; A5901RR, E + L treatment): 0.54 g plant^−1
Biomass Root ([2]; A5901RR, E + L treatment): 0.93 g plant^−1
Biomass Shoot ([2]; A5901RR, E + L treatment): 4.03 g plant^−1
Nitrogen Root ([2]; A5901RR, E + L treatment): 45 mg plant^−1
Nitrogen Shoot ([2]; A5901RR, E + L treatment): 163 mg plant^−1
Nodule mass effect ([2]; DK5961RR): decreased
Biomass Nodule ([2]; DK5961RR, E + L treatment): 0.40 g plant^−1
Biomass Root ([2]; DK5961RR, E + L treatment): 0.74 g plant^−1
Biomass Shoot ([2]; DK5961RR, E + L treatment): 3.41 g plant^−1
Nitrogen Root ([2]; DK5961RR, E + L treatment): 31 mg plant^−1
Nitrogen Shoot ([2]; DK5961RR, E + L treatment): 142 mg plant^−1
Biomass Nodule ([2]; H5164RR, E + L treatment): 0.47 g plant^−1
Biomass Root ([2]; H5164RR, E + L treatment): 1.18 g plant^−1
Biomass Shoot ([2]; H5164RR, E + L treatment): 4.36 g plant^−1
Nitrogen Root ([2]; H5164RR, E + L treatment): 46 mg plant^−1
Nitrogen Shoot ([2]; H5164RR, E + L treatment): 170 mg plant^−1
Biomass Root ([2]; TV5866RR, E + L treatment): 0.71 g plant^−1
Biomass Shoot ([2]; TV5866RR, E + L treatment): 3.07 g plant^−1
Nitrogen Root ([2]; TV5866RR, E + L treatment): 35 mg plant^−1
Nitrogen Shoot ([2]; TV5866RR, E + L treatment): 131 mg plant^−1
Biomass Nodule ([2]; TV5866RR, E + L: 1.68 kg ai ha^−1 at 5, 10, 18, 25, and 32 DAE): 0.34 g plant^−1
Measured biomass or nitrogen parameters ([2]; cultivars A5901RR or H5164RR): None of the measured biomass or nitrogen parameters were decreased
Number of nodules per plant vs untreated ([3]; Harvest 1 (19 DAE)): no difference
Nitrogen accumulation decrease in roots [3, 5]: 36%
Nitrogen accumulation decrease in shoots [3, 5]: 34%
Nodule mass effect ([3]; Harvest 1, Run 2, 19 DAE): not affected
Total nodule weight decrease ([3]; Harvest 1, Run 1): 34%
Nodules per plant Run 1 ([3]; Early treatment, Run 1): 138 number
Individual nodule mass Run 2 ([3]; Early treatment, Run 2): 1.70 mg nodule^−1
Nodules per plant Run 2 ([3]; Early treatment, Run 2): 256 number
Individual nodule mass Run 1 ([3]; Early: 1.68 kg ha^−1 on 5 and 12 DAE, Run 1): 2.73 mg nodule^−1
Nodules per plant Run 1 ([3]; Late treatment, Run 1): 150 number
Individual nodule mass Run 2 ([3]; Late treatment, Run 2): 2.00 mg nodule^−1
Nodules per plant Run 2 ([3]; Late treatment, Run 2): 209 number
Individual nodule mass Run 1 ([3]; Late: 1.68 kg ha^−1 on 18, 25, and 32 DAE, Run 1): 2.79 mg nodule^−1
Root biomass effect ([3]; TV5866RR, Harvest 1): not decreased
Shoot biomass decrease ([3]; TV5866RR, Harvest 1 (19 DAE)): 17%
Nitrogen Root [3, 6]: 4.2 mg plant^−1
Nitrogen Shoot [3, 6]: 8.9 mg plant^−1
Biomass Root [3, 7]: 0.17 g plant^−1
Biomass Shoot [3, 7]: 0.40 g plant^−1
Biomass Nodules Run 1 ([3]; TV5866RR, Harvest 1 (19 DAE), early treatment, Run 1): 0.043 g plant^−1
Biomass Nodules Run 2 ([3]; TV5866RR, Harvest 1 (19 DAE), early treatment, Run 2): 0.088 g plant^−1
Visual observation of plants ([3]; between 12 and 20 DAE): yellowed
Effect on plant mass, plant color, or plant N content ([3]; by 40 DAE in Run 2): no apparent effect
Soybean seed yield ([4]; Fayetteville, A5901RR, glyphosate 1: 7 & 21 DAE): 2053a kg ha^−1
Soybean seed yield ([4]; Fayetteville, A5901RR, glyphosate 2: 7 & 49 DAE): 2057a kg ha^−1
Soybean seed yield ([4]; Fayetteville, A5901RR, glyphosate 3: 21 & 35 DAE): 1999a kg ha^−1
Soybean seed yield ([4]; Fayetteville, DK5961RR, glyphosate 1: 7 & 21 DAE): 1854a kg ha^−1
Soybean seed yield ([4]; Fayetteville, DK5961RR, glyphosate 2: 7 & 49 DAE): 1798a kg ha^−1
Soybean seed yield ([4]; Fayetteville, DK5961RR, glyphosate 3: 21 & 35 DAE): 1992a kg ha^−1
Biomass vs untreated check ([4]; Keiser, A5901RR, 92 DAE): significantly less biomass
Soybean seed yield ([4]; Keiser, A5901RR, glyphosate 1: 1.68 kg ha^−1 at 7 & 21 DAE): 974b kg ha^−1
Soybean seed yield ([4]; Keiser, A5901RR, glyphosate 2: 1.68 kg ha^−1 at 7 & 49 DAE): 1138ab kg ha^−1
Soybean seed yield ([4]; Keiser, A5901RR, glyphosate 3: 1.68 kg ha^−1 at 21 & 35 DAE): 1050ab kg ha^−1
Yield vs check ([4]; Keiser, A5901RR, glyphosate at 7 followed by 21 DAE): significantly lower yield
Biomass vs other treatments ([4]; Keiser, DK5961RR, 92 DAE, glyphosate at 7 followed by 21 DAE or at 7 followed by 49 DAE): tended to be lower
Soybean seed yield ([4]; Keiser, DK5961RR, glyphosate 1: 7 & 21 DAE): 1197ab kg ha^−1
Soybean seed yield ([4]; Keiser, DK5961RR, glyphosate 2: 7 & 49 DAE): 989b kg ha^−1
Soybean seed yield ([4]; Keiser, DK5961RR, glyphosate 3: 21 & 35 DAE): 1291a kg ha^−1
Yield decrease ([4]; Keiser, DK5961RR, glyphosate at 7 followed by 21 DAE): 24%
Yield lower than untreated check ([4]; Keiser, DK5961RR, glyphosate at 7 followed by 49 DAE): 8%
Seed yields vs untreated check ([4]; Keiser, DK5961RR, other glyphosate and standard herbicide treatments): numerically equal to the untreated check

From patent US6872562B2, “Herbicide resistant dinitrogen fixing bacteria and method of use” (priority 2001, dated 2005)
